Legend:
Details in all cases: 72 h
Caco-2 [1] = test: cell viability relative to DMSO; higher = less toxic
Calu-3 [2] = test: as above
HepG2 [3] = test: as above
U2OS [4] = test: as above
Vero E6 [5] = test: as above
Caco-2 [6] = test: relative viability EC50 (midpoint between 100% and the lowest measured viability); higher = less toxic
Calu-3 [7] = test: as above
HepG2 [8] = test: as above
U2OS [9] = test: as above
Vero E6 [10] = test: as above
Caco-2 [11] = test: drug sensitivity score (DSS) for viability; higher = more toxic; extreme values may be limits of the assay
Calu-3 [12] = test: as above
HepG2 [13] = test: as above
U2OS [14] = test: as above
Vero E6 [15] = test: as above

Row | Compound | cell viability (Caco-2 [1]; 1 nM) | cell viability (Caco-2 [1]; 10 nM) | cell viability (Caco-2 [1]; 100 nM) | cell viability (Caco-2 [1]; 1000 nM) | cell viability (Caco-2 [1]; 10000 nM) | cell viability (Calu-3 [2]; 1 nM) | cell viability (Calu-3 [2]; 10 nM) | cell viability (Calu-3 [2]; 100 nM) | cell viability (Calu-3 [2]; 1000 nM) | cell viability (Calu-3 [2]; 10000 nM) | cell viability (HepG2 [3]; 1 nM) | cell viability (HepG2 [3]; 10 nM) | cell viability (HepG2 [3]; 100 nM) | cell viability (HepG2 [3]; 1000 nM) | cell viability (HepG2 [3]; 10000 nM) | cell viability (U2OS [4]; 1 nM) | cell viability (U2OS [4]; 10 nM) | cell viability (U2OS [4]; 100 nM) | cell viability (U2OS [4]; 1000 nM) | cell viability (U2OS [4]; 10000 nM) | cell viability (Vero E6 [5]; 1 nM) | cell viability (Vero E6 [5]; 10 nM) | cell viability (Vero E6 [5]; 100 nM) | cell viability (Vero E6 [5]; 1000 nM) | cell viability (Vero E6 [5]; 10000 nM) | relative viability EC50 (Caco-2 [6]) | relative viability EC50 (Calu-3 [7]) | relative viability EC50 (HepG2 [8]) | relative viability EC50 (U2OS [9]) | relative viability EC50 (Vero E6 [10]) | drug sensitivity score (Caco-2 [11]) | drug sensitivity score (Calu-3 [12]) | drug sensitivity score (HepG2 [13]) | drug sensitivity score (U2OS [14]) | drug sensitivity score (Vero E6 [15])
1 | Cc1ccc2c(c1)c1c3n2CCNC3CCC1 (stereo not given) [pirlindole] | 90.9% | 101% | 97.9% | 101% | 104% | 98.1% | 100% | 98% | 102% | 99.1% | 100% | 98% | 99.9% | 102% | 82.4% | 100% | 102% | 96.9% | 103% | 102% | 97.7% | 100% | 97.6% | 101% | 101% | > 10 µM | > 10 µM | > 10 µM | > 10 µM | > 10 µM | 0 | 0 | 0.3 | 0 | 0
2 | C=C1/C(=C\C=C2/CCC[C@]3(C)[C@@H]([C@H](C)/C=C/[C@H](C)C(C)C)CC[C@@H]23)C[C@@H](O)C[C@@H]1O [doxercalciferol] | 104% | 103% | 96.3% | 98.2% | 97.2% | 95.3% | 102% | 99.9% | 95.8% | 111% | 101% | 94.8% | 99.8% | 96.4% | 99.9% | 92.2% | 102% | 94.9% | 96.7% | 100% | 97.7% | 101% | 97.1% | 95.9% | 106% | > 10 µM | > 10 µM | > 10 µM | > 10 µM | > 10 µM | 0 | 0 | 0 | 0 | 0
3 | Nc1ccc(-c2ccc3ncc4ccc(=O)n(-c5cccc(C(F)(F)F)c5)c4c3c2)cn1 [torin-2] | 89.4% | 69.1% | 32.7% | 21.7% | 17.8% | 86.3% | 62.6% | 30.2% | 22.2% | 18.5% | 91.2% | 81.6% | 41.2% | 16.3% | 3.4% | 92.5% | 90.8% | 26.6% | 11% | 0.5% | 94.6% | 77.1% | 48.6% | 36% | 11.5% | 0.0169 µM | 0.0111 µM | 0.0594 µM | 0.0481 µM | 0.0738 µM | 26.6 | 28.1 | 24.5 | 27.3 | 21
4 | Nc1ccc(C(=O)O)cc1 [potassium-p-aminobenzoate] | 95.6% | 97.1% | 95.1% | 102% | 102% | 107% | 97.1% | 99% | 105% | 103% | 102% | 93.6% | 109% | 112% | 103% | 96.2% | 101% | 94.4% | 103% | 94.9% | 105% | 105% | 104% | 97.1% | 100% | > 10 µM | > 10 µM | > 10 µM | > 10 µM | > 10 µM | 0 | 0 | 0 | 0 | 0
5 | CC(C)CC(NC(=O)OCC1c2ccccc2-c2ccccc21)C(=O)O (stereo in doubt) | 85.2% | 90.4% | 104% | 96.5% | 98.2% | 89.2% | 102% | 107% | 102% | 92.8% | 90.3% | 103% | 90.1% | 102% | 97.8% | 91% | 95.3% | 105% | 99.7% | 101% | 97.3% | 102% | 95.6% | 94.5% | 108% | > 10 µM | > 10 µM | > 10 µM | > 10 µM | > 10 µM | 0 | 0 | 0 | 0 | 0
6 | CC(=O)OCC(=O)[C@@]1(O)CC[C@H]2[C@@H]3CCC4=CC(=O)CC[C@]4(C)[C@H]3[C@@H](O)C[C@@]21C [hydrocortisone-acetate] | 92.6% | 94.4% | 106% | 97.6% | 107% | 93.8% | 102% | 97.9% | 96.8% | 89.2% | 101% | 105% | 105% | 99.5% | 103% | 94.6% | 97% | 93% | 97.7% | 98.6% | 95.7% | 99.4% | 96.2% | 95.4% | 101% | > 10 µM | > 10 µM | > 10 µM | > 10 µM | > 10 µM | 0 | 0 | 0 | 0 | 0
7 | CCN(CC)C(=O)N1CCN(C)CC1 [diethylcarbamazine] | 98.2% | 95.4% | 97.2% | 88.5% | 99.9% | 102% | 91.4% | 103% | 103% | 102% | 88.1% | 100% | 105% | 101% | 107% | 103% | 97.8% | 102% | 91.4% | 98.1% | 103% | 97.5% | 102% | 103% | 99.3% | > 10 µM | > 10 µM | > 10 µM | > 10 µM | > 10 µM | 0 | 0 | 0 | 0 | 0
8 | CN1C(=O)CC(c2ccccc2)C1=O (stereo not given) [phensuximide] | 99.3% | 102% | 97.2% | 90.9% | 103% | 100% | 108% | 107% | 99.1% | 103% | 108% | 110% | 96.4% | 98.3% | 98.9% | 96.2% | 99.8% | 100% | 98.3% | 106% | 104% | 103% | 99.5% | 103% | 98.3% | > 10 µM | > 10 µM | > 10 µM | > 10 µM | > 10 µM | 0 | 0 | 0 | 0 | 0
9 | C[N+](C)(C)CC#CCN1CCCC1=O [oxotremorine-M] | 102% | 104% | 93.7% | 107% | 98.6% | 94.9% | 98.3% | 91% | 102% | 102% | 92% | 108% | 92% | 102% | 99.1% | 102% | 105% | 97.5% | 102% | 99.5% | 94.5% | 93.5% | 93.5% | 96% | 95.7% | > 10 µM | > 10 µM | > 10 µM | > 10 µM | > 10 µM | 0 | 0 | 0 | 0 | 0
10 | O=c1[nH]cnc2nc[nH]c12 [hypoxanthine] | 101% | 87% | 102% | 103% | 112% | 98.1% | 90.3% | 102% | 95.4% | 102% | 100% | 102% | 97.7% | 95.5% | 94% | 98% | 97.8% | 102% | 102% | 113% | 105% | 105% | 102% | 104% | 96.5% | > 10 µM | > 10 µM | > 10 µM | > 10 µM | > 10 µM | 0 | 0 | 0 | 0 | 0
11 | COc1cc2cc(c1Cl)N(C)C(=O)C[C@H](OC(=O)C(C)C)[C@]1(C)O[C@@H]1[C@H](C)[C@@H]1C[C@@](O)(NC(=O)O1)[C@H](OC)/C=C/C=C(\C)C2 [ansamitocin-p-3] | 45% | 47.9% | 39% | 40.9% | 35.1% | 62.6% | 53.6% | 36.7% | 37.4% | 37.8% | 39% | 32.4% | 38% | 33.8% | 30.9% | 39.6% | 29.1% | 19.9% | 17.9% | 16.3% | 72.1% | 32.5% | 29.8% | 21.2% | 18.4% | < 0.001 µM | < 0.001 µM | < 0.001 µM | < 0.001 µM | 0.0021 µM | 28.4 | 27.7 | 33.8 | 37.6 | 35
12 | Oc1cc(O)cc(O)c1 [phloroglucin] | 113% | 91.5% | 104% | 91.6% | 104% | 104% | 105% | 113% | 90.1% | 98.8% | 103% | 104% | 91.8% | 99% | 104% | 101% | 98.3% | 98.7% | 98.2% | 98.7% | 101% | 102% | 98.6% | 103% | 101% | > 10 µM | > 10 µM | > 10 µM | > 10 µM | > 10 µM | 0 | 0 | 0 | 0 | 0
13 | CC(=O)[C@H]1CC[C@H]2[C@@H]3CC[C@H]4C[C@](C)(O)CC[C@]4(C)[C@H]3CC[C@]12C [ganaxolone] | 95% | 98.7% | 98.2% | 98.7% | 101% | 96.7% | 94% | 98.5% | 98.4% | 102% | 93.4% | 108% | 94.2% | 102% | 101% | 98.8% | 99.4% | 101% | 100% | 100% | 89.8% | 103% | 91.2% | 95.7% | 106% | > 10 µM | > 10 µM | > 10 µM | > 10 µM | > 10 µM | 0 | 0 | 0 | 0 | 0
14 | CCCCCCCCCCCCCCCC(=O)C(F)(F)F [PACOCF3] | 101% | 98.6% | 104% | 92.3% | 96.8% | 99.6% | 93.5% | 91.2% | 83.2% | 102% | 99.6% | 108% | 102% | 104% | 105% | 107% | 103% | 106% | 97.2% | 102% | 101% | 101% | 96.6% | 102% | 101% | > 10 µM | > 10 µM | > 10 µM | > 10 µM | > 10 µM | 0 | 0 | 0 | 0 | 0
15 | COc1ccc(Cc2cnc(N)nc2N)cc1OC [diaveridine] | 96.9% | 90.4% | 100% | 93% | 96.6% | 86.6% | 94.4% | 97.7% | 84.3% | 88.9% | 95.6% | 102% | 89.2% | 95.8% | 98% | 105% | 103% | 107% | 96.7% | 102% | 99.5% | 104% | 97% | 98.2% | 94.3% | > 10 µM | > 10 µM | > 10 µM | > 10 µM | > 10 µM | 0 | 0 | 0 | 0 | 0

From the supplement of paper PMC13380429
